From patent US20210395679A1, “IN VITRO CELL CULTURE SYSTEM FOR PRODUCING HEPATOCYTE-LIKE CELLS AND USES THEREOF” (CHILDREN'S HOSPITAL MEDICAL CENTER, priority 2018, published 2021) come the findings set out here.

For the assay, the target named is T1, MRP4 (Homo sapiens, UniProt O15439).
T1 sequence (O15439 1-1325): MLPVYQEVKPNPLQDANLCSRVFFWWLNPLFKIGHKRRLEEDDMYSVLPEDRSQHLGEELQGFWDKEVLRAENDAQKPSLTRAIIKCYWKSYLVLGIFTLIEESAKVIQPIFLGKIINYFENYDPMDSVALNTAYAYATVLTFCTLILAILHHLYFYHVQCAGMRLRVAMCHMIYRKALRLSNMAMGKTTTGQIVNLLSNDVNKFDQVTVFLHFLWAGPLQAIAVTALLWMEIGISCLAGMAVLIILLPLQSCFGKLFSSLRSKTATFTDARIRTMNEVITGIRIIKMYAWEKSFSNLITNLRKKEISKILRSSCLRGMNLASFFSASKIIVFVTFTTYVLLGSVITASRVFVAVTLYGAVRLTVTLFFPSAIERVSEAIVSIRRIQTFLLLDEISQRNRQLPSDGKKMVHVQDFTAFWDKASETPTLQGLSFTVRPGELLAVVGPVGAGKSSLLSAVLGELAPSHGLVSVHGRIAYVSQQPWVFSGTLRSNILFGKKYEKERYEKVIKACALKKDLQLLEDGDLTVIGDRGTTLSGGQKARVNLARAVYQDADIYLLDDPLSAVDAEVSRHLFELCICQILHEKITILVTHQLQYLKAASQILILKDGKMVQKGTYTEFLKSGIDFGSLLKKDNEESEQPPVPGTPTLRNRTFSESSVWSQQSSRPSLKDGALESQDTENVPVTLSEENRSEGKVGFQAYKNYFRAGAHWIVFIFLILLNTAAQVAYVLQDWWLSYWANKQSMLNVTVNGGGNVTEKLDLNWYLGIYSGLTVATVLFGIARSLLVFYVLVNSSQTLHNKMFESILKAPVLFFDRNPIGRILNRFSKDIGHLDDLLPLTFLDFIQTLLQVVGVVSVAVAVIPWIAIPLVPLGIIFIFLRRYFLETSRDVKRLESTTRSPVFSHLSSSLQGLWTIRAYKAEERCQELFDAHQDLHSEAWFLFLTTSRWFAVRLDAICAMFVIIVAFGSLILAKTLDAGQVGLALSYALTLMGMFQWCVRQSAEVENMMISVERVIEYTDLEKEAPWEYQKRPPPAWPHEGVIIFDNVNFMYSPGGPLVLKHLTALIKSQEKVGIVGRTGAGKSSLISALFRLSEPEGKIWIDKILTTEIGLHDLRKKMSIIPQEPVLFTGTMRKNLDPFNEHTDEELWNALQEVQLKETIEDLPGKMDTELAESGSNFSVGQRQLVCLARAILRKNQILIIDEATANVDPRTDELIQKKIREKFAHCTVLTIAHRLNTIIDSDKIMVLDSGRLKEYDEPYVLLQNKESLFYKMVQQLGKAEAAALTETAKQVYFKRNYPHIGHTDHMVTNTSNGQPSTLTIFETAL
The experiment in a line: Wash-out assay of intracellular-to-basolateral D4-TCA export with or without MRP4 inhibitor. The conditions noted are these: normal i-Hep, 1 h D4-TCA 10 μM in the lower chamber, fresh medium with or without inhibitor.

Take `Cn1c(CSc2nc3ccccc3s2)n[nH]c1=S` [Ceefourin1]: the “basolateral export of D4-TCA towards the lower chamber” value was “did not alter the basolateral export”.
